Results as given in US20100172983A1 (priority 2001, published 2010).

Legend:
intragastric pH = assay: Emax model: esomeprazole AUC0-24 vs percent time intragastric pH>4.0 on Day 9 (Example 11); assay type: in vivo, human
[1] = in vivo; cited from earlier work
gastroduodenal mucosa = details: twice daily for five days
gastric pH = details: during the 8-10 hours following naproxen sodium dosing

For `COc1ccc2nc([S@@+]([O-])Cc3ncc(C)c(OC)c3C)[nH]c2c1` [esomeprazole], the “Emax, maximal effect: % of time with intragastric pH>4.0 over the daily interval at steady state” value (intragastric pH; Day 9) was 90.4% and the “AUC0-24 value required to achieve half (or 50%) of the maximal response (EC50)” value (intragastric pH; Day 9, plasma esomeprazole) was 713 ng·h/mL.

In the case of `CCc1cccc2c3c([nH]c12)C(CC)(CC(=O)O)OCC3` (stereo not drawn) [etodolac], the half-life [1] is given as “about 7 hours”.

In the case of `CC(C(=O)O)c1ccc(-c2ccccc2)c(F)c1` (stereo not drawn) [flurbiprofen], the half-life [1] is given as “about 6 hours”.

In the case of `O=C(c1ccccc1)c1ccc2n1CCC2C(=O)O` (stereo not drawn) [ketorolac], the half-life [1] is listed as 8 to 9 h.

For `Cc1cccc(Nc2ccccc2C(=O)O)c1C` [mefenamic acid], the half-life [1] is listed as “up to 4 hours”.

In the case of `COc1ccc2cc([C@H](C)C(=O)O)ccc2c1` [naproxen sodium], the “patients presenting with gastroduodenal ulcers at the end of the study” value (gastroduodenal mucosa) is reported as 33%, the “subjects with Lanza grade 3 or 4 damage” value (gastroduodenal mucosa; Day 5 endoscopy) is reported as 100% and the “time the pH was greater than 4” value (gastric pH) is reported as 4%.
